Marks after values point to notes of the source that are not given here.
Tests used:
[1] = Solubility screening procedure (concentration and pH of filtrate); type: physicochemical; details: for Conc. of CPD B: compound B + equimolar acid; for Conc. of CPD B / Conc. of CPD A: amino acid or base in deionized water, room temperature, filtrate, UV assay; for pH of Solution: pH of the filtrate; for Conc. of CPD A: compound A + equimolar acid
Experimental: (§1) The amount of Compound A or Compound B calculated for selected concentrations was weighed into volumetric flasks. Equimolar quantities of combining acid, amino acid, or base were added either as solutions or in dry form. Deionized water was added to bring the volume to that desired for the preselected concentrations.. All flasks were sonicated for 15 minutes, allowed to stand at room temperature for 30 minutes, then filtered through a fine frit sintered glass funnel. After the pH of the filtrate was taken, suitable dilutions were made into 0.1N HCl for ultraviolet spectrophotometric assay of concentration. Ten fold dilutions of the original filtrates were made into standard I.V. solutions.

[2] = 10x dilution of soluble forms with standard IV solutions (pH, precipitate); type: physicochemical; details: for Solution 1 ppt 24 hr / Solution 3 ppt 24 hr / Solution 2 ppt 24 hr / Solution 4 ppt 24 hr: precipitate at 24 hr; for Concen. of Cpd A: undiluted solution used for the 10x dilutions
Experimental: as §1

[3] = concentrated Cpd B solution (155-221 mg/ml) diluted 10x with 0.9% NaCl
[4] = Cpd A salt solution diluted 10x with 0.9% NaCl
[5] = Cpd A salt solution diluted 10x with 5% Dextrose
[6] = Cpd A salt solution diluted 10x with 5% Dextrose + 0.9% NaCl
[7] = Cpd A salt solution diluted 10x with Lactated Ringer's Solution

CCn1cc(C(=O)O)c(=O)c2cc(F)c(N3CCNCC3)nc21 [B L-Arginine]
Conc. of CPD B [1]: 6700 µg/mL
pH of Solution ([1]; CPD B solutions): 9.7

CCn1cc(C(=O)O)c(=O)c2cc(F)c(N3CCNCC3)cc21 [A Choline]
Conc. of CPD A [1]: 53500 µg/mL
pH of Solution ([1]; CPD A solutions): 10.34

CCn1cc(C(=O)O)c(=O)c2cc(F)c(N3CCNCC3)nc21 [B Gluconic]
Conc. of CPD B [1]: 168000 µg/mL
pH of Solution ([1]; CPD B solutions): 4.6

CCn1cc(C(=O)O)c(=O)c2cc(F)c(N3CCNCC3)nc21 [B Lactic]
Conc. of CPD B [1]: 217000 µg/mL
pH of Solution ([1]; CPD B solutions): 4.24^b
Solution 2 pH dil ([2]; concentrated Cpd B solution (154-221 mg/ml) diluted 10x with 5% Dextrose): 4.2
Solution 3 pH dil ([2]; concentrated Cpd B solution (154-221 mg/ml) diluted 10x with 5% Dextrose + 0.9% NaCl): 4.1
Solution 4 pH dil ([2]; concentrated Cpd B solution (154-221 mg/ml) diluted 10x with Lactated Ringer's Solution): 4.3
Solution 1 pH dil [2, 3]: 4.1
Solution 1 ppt 4 hr ([2]; concentrated Cpd B solution (155-221 mg/ml) diluted 10x with 0.9% NaCl, precipitate at 4 hr): yes
Solution 1 ppt 24 hr [2, 3]: yes
Solution 3 ppt 4 hr ([2]; concentrated Cpd B solution diluted 10x with 5% Dextrose + 0.9% NaCl, precipitate at 4 hr): yes
Solution 3 ppt 24 hr ([2]; concentrated Cpd B solution diluted 10x with 5% Dextrose + 0.9% NaCl): yes
Solution 2 ppt 4 hr ([2]; concentrated Cpd B solution diluted 10x with 5% Dextrose, precipitate at 4 hr): hazy
Solution 2 ppt 24 hr ([2]; concentrated Cpd B solution diluted 10x with 5% Dextrose): hazy
Solution 4 ppt 4 hr ([2]; concentrated Cpd B solution diluted 10x with Lactated Ringer's Solution, precipitate at 4 hr): yes
Solution 4 ppt 24 hr ([2]; concentrated Cpd B solution diluted 10x with Lactated Ringer's Solution): yes
pH of Solut. ([2]; undiluted concentrated Cpd B solution used for the Solution 1 dilution): 4.04
Concen. of Cpd B ([2]; undiluted concentrated solution (at least 155 mg/ml) used for the Solution 1 dilution (for most salts for all four solutions)): 221000 µg/mL

CCn1cc(C(=O)O)c(=O)c2cc(F)c(N3CCNCC3)cc21 [A Acetic]
Conc. of CPD A [1]: 235000 µg/mL
pH of Solution ([1]; CPD A solutions): 5.3
Solution 1 pH dil [2, 4]: 5.4
Solution 1 ppt 24 hr [2, 4]: no
Solution 2 pH dil [2, 5]: 5.0
Solution 3 pH dil [2, 6]: 5.3
Solution 3 ppt 24 hr [2, 6]: no
Solution 2 ppt 24 hr [2, 5]: no
Solution 4 pH dil [2, 7]: 5.3
Solution 4 ppt 24 hr [2, 7]: no
pH of Solut. ([2]; undiluted Cpd A solution): 5.3
Concen. of Cpd A [2]: 235000 µg/mL

CCn1cc(C(=O)O)c(=O)c2cc(F)c(N3CCNCC3)cc21 [A Galacturonic]
Conc. of CPD A [1]: 166000 µg/mL
pH of Solution ([1]; CPD A solutions): 5.44

CCn1cc(C(=O)O)c(=O)c2cc(F)c(N3CCNCC3)cc21 [A Isethionic]
Conc. of CPD A [1]: 175000 µg/mL
pH of Solution ([1]; CPD A solutions): 1.35
Solution 1 pH dil [2, 4]: 2.18
Solution 1 ppt 24 hr [2, 4]: no
Solution 2 pH dil [2, 5]: 2.27
Solution 3 pH dil [2, 6]: 2.08
Solution 3 ppt 24 hr [2, 6]: no
Solution 2 ppt 24 hr [2, 5]: no
Solution 4 pH dil [2, 7]: 3.70
Solution 4 ppt 24 hr [2, 7]: no
pH of Solut. ([2]; undiluted Cpd A solution): 1.35
Concen. of Cpd A [2]: 175000 µg/mL

CCn1cc(C(=O)O)c(=O)c2cc(F)c(N3CCNCC3)nc21 [B Tartaric]
Conc. of CPD B [1]: 7700 µg/mL
pH of Solution ([1]; CPD B solutions): 3.46

CCn1cc(C(=O)O)c(=O)c2cc(F)c(N3CCNCC3)cc21 [A Tartaric]
Conc. of CPD A [1]: 3500 µg/mL
pH of Solution ([1]; CPD A solutions): 3.02

CCn1cc(C(=O)O)c(=O)c2cc(F)c(N3CCNCC3)cc21 [A Methane Sulphonic]
Conc. of CPD A [1]: 175000 µg/mL
pH of Solution ([1]; CPD A solutions): 1.33
Solution 1 pH dil [2, 4]: 5.4
Solution 1 ppt 24 hr [2, 4]: no
Solution 2 pH dil [2, 5]: 2.7
Solution 3 pH dil [2, 6]: 2.5
Solution 3 ppt 24 hr [2, 6]: no
Solution 2 ppt 24 hr [2, 5]: no
Solution 4 pH dil [2, 7]: 4.5
Solution 4 ppt 24 hr [2, 7]: no
pH of Solut. ([2]; undiluted Cpd A solution): 1.5
Concen. of Cpd A [2]: 173000 µg/mL

CCn1cc(C(=O)O)c(=O)c2cc(F)c(N3CCNCC3)nc21 [B Succinic]
Conc. of CPD B [1]: 75000 µg/mL
pH of Solution ([1]; CPD B solutions): 4.45^b

CCn1cc(C(=O)O)c(=O)c2cc(F)c(N3CCNCC3)cc21 [A Lactobionic]
Conc. of CPD A [1]: 46500 µg/mL
pH of Solution ([1]; CPD A solutions): 4.65

CCn1cc(C(=O)O)c(=O)c2cc(F)c(N3CCNCC3)cc21 [A Succinic]
Conc. of CPD A [1]: 128000 µg/mL
pH of Solution ([1]; CPD A solutions): 4.25

CCn1cc(C(=O)O)c(=O)c2cc(F)c(N3CCNCC3)nc21 [B Oxalic]
Conc. of CPD B [1]: 2800 µg/mL
pH of Solution ([1]; CPD B solutions): 1.76^b

CCn1cc(C(=O)O)c(=O)c2cc(F)c(N3CCNCC3)nc21 [B L-Lysine]
Conc. of CPD B [1]: 4300 µg/mL
pH of Solution ([1]; CPD B solutions): 9.4

CCn1cc(C(=O)O)c(=O)c2cc(F)c(N3CCNCC3)cc21 [A Hydrochloric]
Conc. of CPD A [1]: 201000 µg/mL
pH of Solution ([1]; CPD A solutions): 1.52^a
Solution 1 pH dil [2, 4]: 2.7
Solution 1 ppt 24 hr [2, 4]: no
Solution 2 pH dil [2, 5]: 2.8
Solution 3 pH dil [2, 6]: 2.7
Solution 3 ppt 24 hr [2, 6]: no
Solution 2 ppt 24 hr [2, 5]: no
Solution 4 pH dil [2, 7]: 4.6
Solution 4 ppt 24 hr [2, 7]: no
pH of Solut. ([2]; undiluted Cpd A solution): 1.52
Concen. of Cpd A [2]: 201000 µg/mL

CCn1cc(C(=O)O)c(=O)c2cc(F)c(N3CCNCC3)nc21 [B Diethanolamine]
Conc. of CPD B [1]: 4300 µg/mL
pH of Solution ([1]; CPD B solutions): 9.7

CCn1cc(C(=O)O)c(=O)c2cc(F)c(N3CCNCC3)cc21 [A L-Lysine]
Conc. of CPD A [1]: 4200 µg/mL
pH of Solution ([1]; CPD A solutions): 9.5

CCn1cc(C(=O)O)c(=O)c2cc(F)c(N3CCNCC3)cc21 [A D,L-Alanine]
Conc. of CPD A [1]: 900 µg/mL
pH of Solution ([1]; CPD A solutions): 6.44
